In test [1] the test system is carrageenan rat paw edema. In words: Carrageenan Rat Paw Edema Test. The class given is in vivo, Male Sprague-Dawley rats. As to conditions: for ED35: 4 h, oral, by regression analysis, read-out: ID35; for inhibition in vivo at 100 mg/kg: po, 100 mg/kg P.O., paw volume 4 h after carrageenan, vs control group, read-out: Percent Inhibiton at 100 mg/kg dose P.O. The protocol: Carrageenan Rat Paw Edema Test
Male Sprague-Dawley rats (Charles River Laboratories) are weighed and food fasted overnight. The animals are then divided into four to six groups of six animals each according to body weights (average about 145 g) so that each group has about the same average body weight (within 10 g).
The following morning animals are dosed with the test compound and then placed in individual cages. For oral dosing, the drug is suspended in 0.5% methyl cellulose with 2% Tween 80, and delivered via stomach tube in a 5 ml volume.
Paw volumes (0 time) are determined on both hind paws with a mercury displacement device equipped with a transducer and digitizer. One hour after dosing the test compound, the animals are placed in a plastic restrainer and 50 ul of a 1% (w/w) carrageenan solution in 0.9% saline is injected into the ventral surface of the left rear paw. Four hours after the carrageenan injection, the paw volumes are again determined.
The results are expressed as percent inhibition of the mean paw volume of the test group relative to the control group. Statistical differences are determined by one way analysis of variance. ID35 values are determined by regression analysis.
Background: The carrageenan paw model is a standard test of acute inflammation.

Test [2] has as its system arachidonic acid-induced inflamed mouse ear. In words: Arachidonic Acid-Induced Inflamed Mouse Ear Test. The class given is in vivo, Adult male Cox ICR mice. The following applies: for inhibition in vivo at 50 µg/ear: Mus musculus, 50 ug/ear topical, 3 hours, read-out: Percent Inhibition at 50 ug/ear topical dose; for ID50: topical, by regression analysis. The method, then:
Arachidonic Acid-Induced Inflamed Mouse Ear Test
All drugs are dissolved with arachidonic acid in the vehicle. At the end of 3 hours, animals are sacrificed by cervical dislocation and both ears are removed. A 5 mm punch biopsy is removed from both ears and is weighed to the nearest 0.1 mg on a Cahn electrobalance. Ten animals are used per group. The study usually consists of 4 to 6 groups, of which one is a control group which is treated on the left ear with only arachidonic acid in the vehicle. The results are expressed as percent inhibition of the swelling response compared to the control group. Statistical tests for significance between groups are made using a one way analysis of variance of the ear weight differences. ID50 values are determined by regression analysis.

The subject of test [3] is oxazolone-induced inflamed mouse ear. In words: Oxazolone-Induced Inflamed Mouse Ear Test (Ox-IMET). Format: in vivo, Adult male Cox ICR mice. The following applies: topical, 25 ul of 10% in ethanol, 24 h after challenge, vs control group, read-out: Percent Inhibition. The method, then:
Oxazolone-Induced Inflamed Mouse Ear Test ("Ox-IMET")
Adult male Cox ICR mice, 25-35 g, are sensitized by applying 3% oxazolone in olive oil to the clipped abdomen of each animal using a cotton swab. One week later, the mice are challenged on the inner surface of the left ear with 3% oxazolone in aceotone. At the same time 25 ul of the test compound (10% in ethanol) is applied to the outer surface of the same ear. Twenty four hours after the challenge, the animals are sacrificed by cervical dislocation and both ears are removed. A 5 mm punch biopsy is removed from both ears and is weighed to the nearest 0.1 mg on a Cahn electrobalance. Ten animals are used per group. The study usually consists of 4 to 6 groups, of which one is a control group which is challenged on the left ear, but is not treated with a test compound. The results are expressed as percent inhibition of the swelling response compared to the control group. Statistical tests for significance between groups are made using a one way analysis of variance of the ear weight differences.

The subject of test [4] is adjuvant arthritis (modified Freund's adjuvant). In words: Adjuvant Arthritis - Therapeutic. Format: in vivo, Male Sprague-Dawley rats. The following applies: 0.5 mg/kg, 1 x/day, oral, days 20 through 28. The method, then:
Adjuvant Arthritis Methodology
Male Sprague-Dawley rats weighing 167-170 gm are allowed to acclimate to the laboratory for at least 3 days. Ten rats are then assigned to the healthy control group and the remaining rats are assigned to the arthritic group. On day 0, the rats in the arthritic group are injected subcutaneously in the middle of their tail with a modified Freund's adjuvant (MFA) at a dosage of 0.05 ml/100 gm body weight. The MFA is made by grinding Mycobacterium butyricum (Mb) and then mixing with mineral oil at a concentration of 10 mg Mb/ml of mineral oil. This is mixed in an Omni mixer for 45 minutes.
Paw volumes and body weights are determined on days -1, 6, 13, 19, 26, and 29. On day 19, paw volume changes from day -1 are determined for the arthritic group. The rats with paw volume changes≥0.50 ml but ≤2.50 ml are randomized by paw volume changes into the treatment groups on day 20. […] On day 29, two representative rats from each treatment group are photographed, paw volumes and body weights are determined, and then the rats are sacrificed with CO2 and x-rays are taken.
The radiographs are used to grade bone resorption. Bone resorption is graded in 20 areas of the fore and hind paws. The areas for grading on the hind paw are: distal femur end, proximal tibia and tibula, distal end of the tibia and the small bone under the tibia, calcaneous, tarsus, and metatarsus. The areas on the fore paws are: radius, ulna, carpus, and metacarpus. Each area is given a grade of 0 (no resorption) or 1 (resorption) for possible grade of 20 of each animal.

Take `C#CCCC(C)C(=O)c1cc(C(C)(C)C)c(O)c(C(C)(C)C)c1` (stereo not shown) [Compound 13, 4-(2'-methyl-5'-hexynoyl)-2,6-di-t-butylphenol]: in test [1], the ED35 stood at 17.9 mg/kg and the inhibition in vivo at 100 mg/kg turned out to be 69.8%. Moreover, in test [2], the inhibition in vivo at 50 µg/ear amounted to 74.4% and the ID50 came to 17.5 ug/ear.

`C#CC(=O)/C=C/c1cc(C(C)(C)C)c(O)c(C(C)(C)C)c1` [Compound 27, 4-((E)-1'-penten-4'-yn-3'-one)-2,6-di-t-butylphenol]: in test [1], the ED35 worked out at 28.3 mg/kg and the inhibition in vivo at 100 mg/kg worked out at 62.8%. Besides, in test [2], the inhibition in vivo at 50 µg/ear amounted to 34.8% and the ID50 came to 52.4 ug/ear.

Take `CC(C)(C)c1cc(C(=O)CC2OCCO2)cc(C(C)(C)C)c1O` [Compound 30, 4-(2'-(1",3"-dioxolane)acetyl)-2,6-di-t-butylphenol]: in test [1], the ED35 turned out to be 35.2 mg/kg and the inhibition in vivo at 100 mg/kg turned out to be 72.8%. Besides, the inhibition in vivo at 10 % in test [3] amounted to 33.4%. In addition, in test [2], the inhibition in vivo at 50 µg/ear is 69.1% and the ID50 is recorded as 29.5 ug/ear.

Turning to `COc1ccc2c(c1)c(CC(=O)O)c(C)n2C(=O)c1ccc(Cl)cc1` [Indomethacin, reference compound], in test [4], the “Body Weights % Increase” value was determined as 7%, the “Bone Resorption % Inhibition” value was 15% and the “Paw Volume % Decrease” value was 43%.
